These are literature values, as cited in patent US20070293479A1, “OLANZAPINE PHARMACEUTICAL COMPOSITION” (priority 2006, published 2007).

The conditions of the series: free base, at pH 6.8.

Turning to `Cc1cc2c(s1)Nc1ccccc1N=C2N1CCN(C)CC1` [Olanzapine], the solubility result was “about 0.02 mg/ml”.
